Measurements published in US20240327412A1, “FACTOR XIIA INHIBITORS” (KALVISTA PHARMACEUTICALS LIMITED, priority 2021, published 2024).

Tests used:
Format in all cases: biochemical
[1] = molecular target: T1, Human Factor XIIa (Homo sapiens, UniProt P00748); assay: Determination of FXIIa inhibition (fluorogenic substrate H-DPro-Phe-Arg-AFC, IC50 assay); settings: substrate at Km concentration, 25° C.; category scale; read-out: Human FXII IC50 (nm)
T1 construct: Proteolytic cleavage of FXII to heavy and light chains of FXIIa dramatically increases catalytic activity; purchased Enzyme Research Laboratories
T1 sequence (P00748 373-615 limits assumed): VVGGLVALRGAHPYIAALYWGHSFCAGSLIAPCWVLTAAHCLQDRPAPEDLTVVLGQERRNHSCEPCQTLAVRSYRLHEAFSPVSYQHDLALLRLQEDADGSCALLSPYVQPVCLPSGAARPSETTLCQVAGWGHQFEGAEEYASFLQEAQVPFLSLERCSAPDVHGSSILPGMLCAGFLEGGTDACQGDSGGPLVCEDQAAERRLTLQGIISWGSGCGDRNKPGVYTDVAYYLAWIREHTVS
T1 sequence (P00748 20-372 partner limits assumed): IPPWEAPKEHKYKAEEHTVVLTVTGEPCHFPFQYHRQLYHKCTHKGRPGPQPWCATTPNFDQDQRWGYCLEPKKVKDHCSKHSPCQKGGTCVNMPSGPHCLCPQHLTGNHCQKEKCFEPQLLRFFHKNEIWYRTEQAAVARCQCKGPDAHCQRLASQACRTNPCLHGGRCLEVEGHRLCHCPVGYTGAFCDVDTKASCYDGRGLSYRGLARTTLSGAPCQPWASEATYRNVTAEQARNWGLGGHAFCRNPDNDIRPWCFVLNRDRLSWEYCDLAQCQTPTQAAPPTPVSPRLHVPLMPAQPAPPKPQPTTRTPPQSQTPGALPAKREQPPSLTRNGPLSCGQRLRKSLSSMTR
Procedure, shortened: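 At substrate Km and 25° C., the rate of AFC release from H-DPro-Phe-Arg-AFC by human Factor XIIa was followed for 5 min across compound concentrations. Inhibition was derived as percent of uninhibited rate, giving IC50.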

[2] = molecular target: T2, Plasma Kallikrein (Homo sapiens, UniProt P03952); assay: Related protease inhibition: Plasma Kallikrein (fluorogenic substrate at Km); settings: class symbols per Table 18, read-out: IC50 (human PKal)
T2 construct: FXIIa converts plasma prekallikrein (PK) to plasma kallikrein (PKa)
T2 sequence (P03952 391-638 limits assumed): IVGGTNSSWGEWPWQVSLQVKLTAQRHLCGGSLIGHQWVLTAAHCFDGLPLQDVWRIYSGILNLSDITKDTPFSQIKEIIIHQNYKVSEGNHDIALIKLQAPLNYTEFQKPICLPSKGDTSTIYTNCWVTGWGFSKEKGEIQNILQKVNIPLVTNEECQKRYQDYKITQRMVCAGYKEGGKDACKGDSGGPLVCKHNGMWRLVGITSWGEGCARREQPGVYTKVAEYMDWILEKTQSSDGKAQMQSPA
T2 sequence (P03952 20-390 partner limits assumed): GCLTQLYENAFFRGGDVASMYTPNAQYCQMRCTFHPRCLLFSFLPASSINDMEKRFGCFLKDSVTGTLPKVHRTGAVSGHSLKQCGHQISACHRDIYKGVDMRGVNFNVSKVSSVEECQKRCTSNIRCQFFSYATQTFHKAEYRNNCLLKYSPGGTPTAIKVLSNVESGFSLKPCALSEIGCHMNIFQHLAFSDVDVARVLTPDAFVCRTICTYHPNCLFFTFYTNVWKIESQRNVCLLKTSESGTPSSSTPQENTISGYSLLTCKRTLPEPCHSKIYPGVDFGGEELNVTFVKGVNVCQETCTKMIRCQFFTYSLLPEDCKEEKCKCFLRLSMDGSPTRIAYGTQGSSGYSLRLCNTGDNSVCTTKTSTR
Procedure, shortened: (§1)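 Enzymatic activity was followed as release of fluorescence from a fluorogenic substrate over 5 min at 25° C, with test compound at various concentrations. The linear rate per minute was converted to % activity, and IC50 was taken as the concentration giving 50% inhibition of uninhibited enzyme activity.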

[3] = molecular target: Thrombin (Homo sapiens, UniProt P00734); assay: Related protease inhibition: Thrombin (fluorogenic substrate at Km); settings: class symbols per Table 18
Experimental: (§2) In vitro inhibition of related proteases was determined using an IC50 assay based on standard literature methods (see e.g. Shori et al., Biochem. Pharmacol., 1992, 43, 1209; Bouckaert et al., European Journal of Medicinal Chemistry 110 (2016) 181). Human serine protease enzyme Plasma Kallikrein, KLK1, FXa, Plasmin, Thrombin and Trypsin were assayed for enzymatic activity using an appropriate fluorogenic substrate at Km concentration, FXIa at fixed substrate concentration of 100 μM and various concentrations of the test compound. Protease activity was measured by monitoring the accumulation of liberated fluorescence from the substrate over 5 min at 25° C. The linear rate of fluorescence increase per minute was expressed as percentage (%) activity. IC50 values were calculated as the concentration of inhibitor giving 50% inhibition of the uninhibited enzyme activity (100%).

[4] = molecular target: Trypsin (Homo sapiens, UniProt P07477); assay: Related protease inhibition: Trypsin (fluorogenic substrate at Km); settings: class symbols per Table 18
Experimental: as §2

[5] = molecular target: FXa (Homo sapiens, UniProt P00742); assay: Related protease inhibition: FXa (fluorogenic substrate at Km); settings: class symbols per Table 18
Chain of FXa (P00742 235-488 limits assumed): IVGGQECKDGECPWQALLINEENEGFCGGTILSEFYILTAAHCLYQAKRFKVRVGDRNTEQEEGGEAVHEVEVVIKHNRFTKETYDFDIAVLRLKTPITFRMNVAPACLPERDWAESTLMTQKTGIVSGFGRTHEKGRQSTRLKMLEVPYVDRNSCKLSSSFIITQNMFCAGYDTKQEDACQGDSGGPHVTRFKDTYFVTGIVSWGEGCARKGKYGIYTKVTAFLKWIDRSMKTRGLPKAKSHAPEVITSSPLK
Chain of FXa (P00742 41-179 partner limits assumed): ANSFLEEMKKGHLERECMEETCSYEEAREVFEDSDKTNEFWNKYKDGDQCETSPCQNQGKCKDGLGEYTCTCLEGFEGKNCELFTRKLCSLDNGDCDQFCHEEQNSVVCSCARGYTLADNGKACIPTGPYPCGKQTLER
Experimental: as §2

[6] = molecular target: KLK1 (Homo sapiens, UniProt P06870); assay: Related protease inhibition: KLK1 (fluorogenic substrate at Km); settings: class symbols per Table 18
Chain of KLK1 (P06870 25-262): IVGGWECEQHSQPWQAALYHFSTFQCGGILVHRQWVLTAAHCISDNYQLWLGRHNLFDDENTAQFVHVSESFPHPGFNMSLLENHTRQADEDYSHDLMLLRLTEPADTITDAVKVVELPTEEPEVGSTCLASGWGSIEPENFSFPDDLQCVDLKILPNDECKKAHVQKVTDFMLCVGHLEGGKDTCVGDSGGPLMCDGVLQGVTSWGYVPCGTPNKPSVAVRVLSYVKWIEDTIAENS
Procedure, shortened: as §1

[7] = molecular target: Plasmin (Homo sapiens, UniProt P00747); assay: Related protease inhibition: Plasmin (fluorogenic substrate at Km); settings: class symbols per Table 18
Chain of Plasmin (P00747 581-810 limits assumed): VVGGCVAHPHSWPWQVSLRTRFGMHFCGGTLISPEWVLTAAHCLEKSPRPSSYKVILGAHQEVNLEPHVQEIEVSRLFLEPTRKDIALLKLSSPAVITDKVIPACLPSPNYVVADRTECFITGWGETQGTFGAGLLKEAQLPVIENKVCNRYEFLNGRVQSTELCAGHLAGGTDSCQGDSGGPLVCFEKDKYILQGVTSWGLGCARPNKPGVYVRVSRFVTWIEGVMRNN
Chain of Plasmin (P00747 97-580 partner limits assumed): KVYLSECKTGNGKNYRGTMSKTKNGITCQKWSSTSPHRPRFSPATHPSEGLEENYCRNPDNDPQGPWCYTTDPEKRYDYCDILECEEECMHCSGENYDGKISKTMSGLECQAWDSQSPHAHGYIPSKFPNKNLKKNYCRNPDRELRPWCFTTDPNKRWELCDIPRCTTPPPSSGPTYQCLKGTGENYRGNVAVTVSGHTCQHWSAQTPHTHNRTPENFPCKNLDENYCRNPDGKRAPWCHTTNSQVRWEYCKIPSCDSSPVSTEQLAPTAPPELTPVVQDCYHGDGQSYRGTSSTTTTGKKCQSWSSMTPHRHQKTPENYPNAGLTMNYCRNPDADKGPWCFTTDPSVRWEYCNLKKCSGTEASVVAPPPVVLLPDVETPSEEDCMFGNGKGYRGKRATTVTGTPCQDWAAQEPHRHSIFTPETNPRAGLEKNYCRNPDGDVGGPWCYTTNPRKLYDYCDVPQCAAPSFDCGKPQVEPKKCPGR
Experimental: as §2

SMILES	IC50 [1] [µM]	IC50 [2] [µM]	IC50 [3] [µM]	IC50 [4] [µM]	IC50 [5] [µM]	IC50 [6] [µM]	IC50 [7] [µM]
Nc1nccc2c(N3CCC4(CC(COc5ccn6ccnc6c5)C4)C3)cccc12 (single isomer, unassigned) [Example 8806, 5-(trans*-2-((imidazo[1,2-a]pyridin-7-yloxy)methyl)-6-azaspiro[3.4]octan-6-yl)isoquinolin-1-amine]	0.1 to 0.3	> 40	> 40	> 40	> 40	10 to 40	> 40
Cn1ccc(OCC23CC(CNc4cccc5c(N)nccc45)(CO2)C3)cc1=O [Example 2205, 4-((4-(((1-aminoisoquinolin-5-yl)amino)methyl)-2-oxabicyclo[2.1.1]hexan-1-yl)methoxy)-1-methylpyridin-2(1H)-one]	0.3 to 1	> 40	> 40	> 40	> 40	10 to 40	> 40
Cc1cnc2ccc(OCC34CC(CNc5cccc6c(N)nccc56)(CO3)C4)cn12 [Example 2212, N5-((1-(((3-methylimidazo[1,2-a]pyridin-6-yl)oxy)methyl)-2-oxabicyclo[2.1.1]hexan-4-yl)methyl)isoquinoline-1,5-diamine]	0.01 to 0.1	10 to 40	> 40	10 to 40	10 to 40	1 to 3	> 40
Nc1nccc2c(NCC34CC(COc5ccc6c(c5)CNC6=O)(CO3)C4)cccc12 [Example 6618, 5-[[1-[[(1-Aminoisoquinolin-5-yl)amino]methyl]-2-oxabicyclo[2.1.1]hexan-4-yl]methoxy]-2,3-dihydroisoindol-1-one]	0.01 to 0.1	> 40	> 40	10 to 40	10 to 40	3 to 10	> 40
Nc1nccc2c(NCC34CC(COc5ccc6nnc(C(F)F)n6c5)(CO3)C4)cccc12 [Example 6620, N5-((4-(((3-(difluoromethyl)-[1,2,4]triazolo[4,3-a]pyridin-6-yl)oxy)methyl)-2-oxabicyclo[2.1.1]hexan-1-yl)methyl)isoquinoline-1,5-diamine]	0.3 to 1	> 40	> 40	3 to 10	> 40	3 to 10	> 40
CN1Cc2cc(OCC34COC(CNc5cccc6c(N)nccc56)(C3)C4)ccc2C1=O [Example 6621, 5-((1-(((1-aminoisoquinolin-5-yl)amino)methyl)-2-oxabicyclo[2.1.1]hexan-4-yl)methoxy)-2-methylisoindolin-1-one]	0.1 to 0.3	> 40	> 40	> 40	> 40	3 to 10	> 40
Nc1nccc2c(NCC34CC(COc5ccn6cnnc6c5)(CO3)C4)cccc12 [Example 6629, N5-((4-(([1,2,4]triazolo[4,3-a]pyridin-7-yloxy)methyl)-2-oxabicyclo[2.1.1]hexan-1-yl)methyl)isoquinoline-1,5-diamine]	0.01 to 0.1	> 40	> 40	10 to 40	> 40	1 to 3	10 to 40
Cc1cc2c(NCC34CC(COc5ccn6ccnc6c5)(CCO3)C4)ccnc2[nH]1 [Example 10907, N-[[5-(Imidazo[1,2-a]pyridin-7-yloxymethyl)-2-oxabicyclo[3.1.1]heptan-1-yl]methyl]-2-methyl-1H-pyrrolo[2,3-b]pyridin-4-amine]	1 to 3	> 40	> 40		> 40	> 40	
Nc1nccc2c(NCC34CC(COc5ccn6cnnc6c5)(CCO3)C4)cccc12 [Example 10926, 5-N-[[5-([1,2,4]Triazolo[4,3-a]pyridin-7-yloxymethyl)-2-oxabicyclo[3.1.1]heptan-1-yl]methyl]isoquinoline-1,5-diamine]	0.01 to 0.1	> 40	> 40	3 to 10	> 40	3 to 10	> 40
Cc1cc(OCC23CCOC(CNc4cccc5c(N)nccc45)(C2)C3)cc(=O)n1C [Example 10928, 4-((1-(((1-Aminoisoquinolin-5-yl)amino)methyl)-2-oxabicyclo[3.1.1]heptan-5-yl)methoxy)-1,6-dimethylpyridin-2(1H)-one]	0.01 to 0.1	> 40	> 40	10 to 40	10 to 40	10 to 40	> 40
Cn1ccc(OCC23CCOC(CNc4cccc5c(N)nccc45)(C2)C3)nc1=O [Example 10940, 4-((1-(((1-aminoisoquinolin-5-yl)amino)methyl)-2-oxabicyclo[3.1.1]heptan-5-yl)methoxy)-1-methylpyrimidin-2(1H)-one]	0.1 to 0.3	> 40	> 40	10 to 40	> 40	10 to 40	> 40
Cn1ccc(OCC23CC(CNc4cccc5c(N)nccc45)(CCO2)C3)cc1=O [Example 11001, 4-((5-(((1-aminoisoquinolin-5-yl)amino)methyl)-2-oxabicyclo[3.1.1]heptan-1-yl)methoxy)-1-methylpyridin-2(1H)-one]	0.1 to 0.3	> 40	> 40	10 to 40	> 40	10 to 40	> 40
Cn1ccc(OCC23CN(C(=O)NCc4ccccc4)C(CNc4cccc5c(N)nccc45)(C2)C3)cc1=O [Example 12017, 1-(((1-aminoisoquinolin-5-yl)amino)methyl)-N-benzyl-4-(((1-methyl-2-oxo-1,2-dihydropyridin-4-yl)oxy)methyl)-2-azabicyclo[2.1.1]hexane-2-carboxamide]		10 to 40	> 40	> 40	10 to 40	3 to 10	10 to 40
Cn1ccc(OCC23CN(CCCc4ccccc4)C(CNc4cccc5c(N)nccc45)(C2)C3)cc1=O [Example 12019, 4-((1-(((1-Aminoisoquinolin-5-yl)amino)methyl)-2-(3-phenylpropyl)-2-azabicyclo[2.1.1]hexan-4-yl)methoxy)-1-methylpyridin-2(1H)-one]	0.01 to 0.1	> 40	> 40	> 40	> 40	1 to 3	> 40
Cn1ccc(OCC23CN(C(=O)Nc4ccccc4)C(CNc4cccc5c(N)nccc45)(C2)C3)cc1=O [Example 12036, 1-(((1-aminoisoquinolin-5-yl)amino)methyl)-4-(((1-methyl-2-oxo-1,2-dihydropyridin-4-yl)oxy)methyl)-N-phenyl-2-azabicyclo[2.1.1]hexane-2-carboxamide]	0.001 to 0.01	10 to 40	> 40	> 40	10 to 40	1 to 3	3 to 10
Cc1cc(OCC23CN(C(=O)NCc4ccccc4)C(CNc4cccc5c(N)nccc45)(C2)C3)cc(=O)n1C [Example 12038, 1-(((1-aminoisoquinolin-5-yl)amino)methyl)-N-benzyl-4-(((1,6-dimethyl-2-oxo-1,2-dihydropyridin-4-yl)oxy)methyl)-2-azabicyclo[2.1.1]hexane-2-carboxamide]	0.001 to 0.01	3 to 10	> 40	10 to 40	1 to 3	3 to 10	10 to 40
